According to PubChem BioAssay (NCI):
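Compound exposure: 48 hours, 5 concentrations, 96-well plates. Here, GI50 denotes the concentration required for 50% inhibition of growth. TGI: total growth inhibition.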

Assays:
Experiment in all cases: inhibition of tumour cell growth, NCI panel, 48 h
NCI-H522 lung = test system: NCI-H522 lung
MCF7 breast = test system: MCF7 breast
CAKI-1 renal = test system: CAKI-1 renal
HS 578T breast = test system: HS 578T breast
SK-MEL-5 melanoma = test system: SK-MEL-5 melanoma
EKVX NSCLC = test system: EKVX NSCLC
SF-539 CNS = test system: SF-539 CNS
SF-268 CNS = test system: SF-268 CNS
786-0 renal = test system: 786-0 renal
HCT-116 colon = test system: HCT-116 colon
NCI-H226 lung = test system: NCI-H226 lung
RPMI-8226 leukemia = test system: RPMI-8226 leukemia
UACC-62 melanoma = test system: UACC-62 melanoma
PC-3 prostate = test system: PC-3 prostate
TK-10 renal = test system: TK-10 renal
SF-295 CNS = test system: SF-295 CNS
SW-620 colon = test system: SW-620 colon
OVCAR-5 ovarian = test system: OVCAR-5 ovarian
HCC-2998 colon = test system: HCC-2998 colon
A498 renal = test system: A498 renal
T-47D breast = test system: T-47D breast
MDA-MB-231 breast = test system: MDA-MB-231 breast
RXF 393 renal = test system: RXF 393 renal
MOLT-4 leukemia = test system: MOLT-4 leukemia
IGROV1 ovarian = test system: IGROV1 ovarian
DU-145 prostate = test system: DU-145 prostate
HOP-62 NSCLC = test system: HOP-62 NSCLC
NCI-H460 lung = test system: NCI-H460 lung

COc1cc2c(cc1OCCCNC(=O)/C=C1/C[C@H]3C=Nc4cc(OCc5ccccc5)c(OC)cc4C(=O)N3C1)NC(=O)[C@@H]1CCCN1C2=O
GI50 (NCI-H522 lung): 31.3 µM | TGI (NCI-H522 lung): > 100 µM | GI50 (MCF7 breast): 32 µM | TGI (MCF7 breast): > 100 µM | GI50 (CAKI-1 renal): > 100 µM | TGI (CAKI-1 renal): > 100 µM | GI50 (HS 578T breast): 34.4 µM | TGI (HS 578T breast): > 100 µM | GI50 (SK-MEL-5 melanoma): 22.5 µM | TGI (SK-MEL-5 melanoma): 68.1 µM | GI50 (EKVX NSCLC): > 100 µM | TGI (EKVX NSCLC): > 100 µM | GI50 (SF-539 CNS): 32.4 µM | TGI (SF-539 CNS): 85.5 µM | GI50 (SF-268 CNS): 39.6 µM | TGI (SF-268 CNS): > 100 µM | GI50 (786-0 renal): 51 µM | TGI (786-0 renal): > 100 µM | GI50 (HCT-116 colon): 73.7 µM | TGI (HCT-116 colon): > 100 µM | GI50 (NCI-H226 lung): 69.5 µM | TGI (NCI-H226 lung): > 100 µM | GI50 (RPMI-8226 leukemia): 43.6 µM | TGI (RPMI-8226 leukemia): > 100 µM | GI50 (UACC-62 melanoma): 55.2 µM | TGI (UACC-62 melanoma): > 100 µM | GI50 (PC-3 prostate): 77.3 µM | TGI (PC-3 prostate): > 100 µM | GI50 (TK-10 renal): > 100 µM | TGI (TK-10 renal): > 100 µM | GI50 (SF-295 CNS): 84.7 µM | TGI (SF-295 CNS): > 100 µM | GI50 (SW-620 colon): 33.3 µM | TGI (SW-620 colon): > 100 µM | GI50 (OVCAR-5 ovarian): 93.5 µM | TGI (OVCAR-5 ovarian): > 100 µM | GI50 (HCC-2998 colon): 60.3 µM | TGI (HCC-2998 colon): > 100 µM | GI50 (A498 renal): 58.9 µM | TGI (A498 renal): > 100 µM | GI50 (T-47D breast): > 100 µM | TGI (T-47D breast): > 100 µM | GI50 (MDA-MB-231 breast): 50.9 µM | TGI (MDA-MB-231 breast): > 100 µM | GI50 (RXF 393 renal): 33.6 µM | TGI (RXF 393 renal): > 100 µM | GI50 (MOLT-4 leukemia): 29.6 µM | TGI (MOLT-4 leukemia): > 100 µM | GI50 (IGROV1 ovarian): > 100 µM | TGI (IGROV1 ovarian): > 100 µM | GI50 (DU-145 prostate): 52.1 µM | TGI (DU-145 prostate): > 100 µM | GI50 (HOP-62 NSCLC): 41.3 µM | TGI (HOP-62 NSCLC): > 100 µM | GI50 (NCI-H460 lung): 38.9 µM | TGI (NCI-H460 lung): > 100 µM
